Experimental data taken from US20010049372A1, “Antiviral nucleoside analogues” (BioChem Pharma Inc., priority 1998, published 2001).
Where two headings read alike, the source gives them in different places.

Columns and labels:
[1] = Cellular toxicity by WST-1 staining; type: cell-based; settings: human, CBMCs
Description: The cellular toxicity of the compounds were assessed on various cells using [^3H]-thymidine uptake. Various cells, including Molt-4, HT1080, DU-145, HepG-2 and HSF, were plated at a concentration of 1-2×10^3 cells per well (96 well plates). After a 24 hr incubation period, 10-fold serial diluted compounds (b 10^−4 M to 10^−10 M) were added to the culture medium and the cells were further incubated for 72 hrs. [^3H]-thymidine was added during the final 18 hr incubation period. After incubation with the [^3H]-thymidine, the cells were washed once with PBS, treated with trypsin if the cells were adherent, and then resuspended in water (hypotonic lysing of cells). The cellular extract was applied directly to a Tomtec Harvester 96. Using this instrument the extracted DNA is adsorbed onto filters, washed and the incorporated [^3H]-thymidine is then counted. The 50% cytotoxic concentration (CC50) was determined by comparing the radioactive counts per minute of the samples in the presence of the compounds against the control. The cellular toxicity of the compounds was also tested by WST-1 staining through assessing proliferation of MT-2, H9, Jurkat, U937, and CBMCs. The established cell lines were cultured in RPMI medium in 96-well plates at a density of 5×10^4 cells/well while CBMCs were plated at a concentration of 0.5×10^6/well. A 10-fold serial diluted (10^−4-10^−7 M) compound was added at day zero. At day 4, the cells were passaged by changing half medium containing appropriately diluted compound. The cell activities were assessed at day 7 using the WST-1 reagent (Boehringer Mannheim) following the protocol provided by the supplier.
In the WST-1 staining experiments, cell lines were cultured in RPMI medium in 96-well plates at a density of 5×10^4 cells/well. CBMCs were plated at a concentration of 0.5×10^6/well. Compounds (10^−4-10^−7 M) were added at day zero. Cell viability was assessed on day 7 using the WST-1 reagent (Boehringer Mannheim) following the protocol provided by the supplier.

L74V = assay: Recombinant drug resistant HIV-1 variants (RT activity); type: cell-based; settings: Human immunodeficiency virus 1
Description: (§1) ANTIVIRAL ASSAYS. The anti-HIV-1 activity of the compound A (−) were assessed by employing HIV-1IIIB in a variety of cell types as previously described (Gu et al., 1992, 1994, 1999; Rando et al., 1995; Salomon et al., 1994). Briefly, cells were incubated with virus at a multiplicity of infection (MOI) of 0.005 for T cell assays and an MOI of 0.5 for monocytic cell assays for 3 hrs. Unbound virus was then removed by washing the cells, followed by seeding the cells into a 96-well plate. The infected cells were cultured in the presence of a serial concentrations of the test compound for 5-7 days. The anti-HIV-1 efficacy was determined by testing for HIV-1 RT activity or p24 level in the cell culture supernatants. All assays were performed in duplicate. Zidovudine and/or lamivudine were used as controls in each experiment.
(§2) Recombinant HIV-1 variants were prepared by introducing the designed mutations into HXB2-D by site-directed mutagenesis as described (Gu et al. 1992, 1994). The virus stocks were prepared by transfecting MT-4 cells with infectious viral DNA constructs. Antiviral activity of the compound A (−) was evaluated as described in example 10.

JM4 = assay: as above; type: cell-based; settings: Human immunodeficiency virus 1
Description: as §1, §2

M184I = assay: as above; type: cell-based; settings: Human immunodeficiency virus 1
Description: as §1, §2

NNRTI^R = assay: as above; type: cell-based; settings: Human immunodeficiency virus 1
Description: as §1, §2

M184V = assay: as above; type: cell-based; settings: Human immunodeficiency virus 1
Description: as §1, §2

JM1 = assay: as above; type: cell-based; settings: Human immunodeficiency virus 1, JM1
Description: as §1, §2

E89G/M184V = assay: as above; type: cell-based; settings: Human immunodeficiency virus 1
Description: as §1, §2

PI^R = assay: as above; type: cell-based; settings: Human immunodeficiency virus 1
Description: as §1, §2

K65R/M184V = assay: as above; type: cell-based; settings: Human immunodeficiency virus 1
Description: as §1, §2

HXB2-D (wt) = assay: Recombinant HIV-1 variants (RT activity); type: cell-based; settings: Human immunodeficiency virus 1, HXB2
Description: as §1, §2

[2] = Cellular toxicity by [3H]-thymidine uptake; type: cell-based, human; settings: human, Table 14, PHA-stimulated PBMCs, read-out: CC50 (μM) [^3H]TTP incorporation in: PBMC
Description: Cellular toxicity was assessed by [^3H]thymidine uptake (de Muys et al. 1999) and WST-1 staining. In the [^3H]thymidine uptake experiments, Molt-4, HT1080, DU-145, HepG2 and HSF, were plated at a concentration of 1-2×10^3 cells per well (96 well plates). PHA-stimulated PBMCs were cultured at a concentration of 4×10^4 cells per well. Following a 24 hr pre-incubation period, test compounds (10^−4 M to 10^−10 M) were added and the cells were incubated for an additional 72 hrs. [^3H]thymidine was added during the final 18 hr incubation period. The cells were then washed once with PBS, treated with trypsin if the cells were adherent, and resuspended in water (hypotonic lysing of cells). The cellular extract was applied directly to a Tomtec Harvester 96. The 50% cytotoxic concentration (CC50) was determined by comparing the radioactive counts per minute obtained from drug-tested samples to those obtained from the control (untreated) cells.

HIV-1WRM8488 = assay: Anti-HIV-1 assay, monocytropic strain (p24); type: cell-based; settings: Human immunodeficiency virus 1; HIV-1WRM8488, m/m cells, determined by p24
Description: as §1
(§3) Furthermore, antiretroviral activity of the compound A (−) was also assessed using different types of HIV-1 strains. […]

HIV-19881 = assay: Anti-HIV-1 assay, non-syncytium inducing strain (p24); type: cell-based; settings: Human immunodeficiency virus 1, PBMC; HIV-19881, PBMCs, determined by p24
Description: as §1, §3

DU-145 = assay: Cellular toxicity by [3H]-thymidine uptake; type: cell-based; settings: 72 hrs
In short: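 Cells plated at 1-2×10^3/well, pre-incubated 24 h, then exposed 72 h to 10-fold serial compound dilutions (10^−4 M to 10^−10 M). [3H]-thymidine was added for the final 18 h and DNA incorporation counted after hypotonic lysis and harvesting. CC50 derived from cpm relative to untreated controls.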

Structure (SMILES)	CC50 at 7 days ([1]; Table 14, day 7, read-out: CC50 (μM) WST-1 CBMC) [µM]	EC50 (L74V) [nM]	EC50 (JM4) [nM]	EC50 (M184I) [nM]	EC50 (NNRTI^R) [nM]	EC50 (M184V) [nM]	EC50 (JM1) [nM]	EC50 (E89G/M184V) [nM]	EC50 (PI^R) [nM]	EC50 (K65R/M184V) [nM]	EC50 (HXB2-D (wt)) [nM]	CC50 at 72 h [2] [µM]	EC50 (HIV-1WRM8488) [nM]	EC50 (HIV-19881) [nM]	CC50 (μM) [^3H-]TTP incorporation in: U-145 (DU-145; Table 4)	CC50 (DU-145; Table 14, read-out: CC50 (μM) [^3H]TTP incorporation in: U145) [µM]	CC50 at 7 days ([1]; Table 4, day 7, read-out: CC50 (μM) WST-1 CBMC) [µM]
Nc1nc(NC2CC2)c2ncn([C@H]3CO[C@@H](CO)O3)c2n1 [Compound A (-), (−)-(2R,4R)-2-hydroxymethyl-4-(2′-amino-6′-cyclopropylamino-purine-9′-yl)-1,3-dioxolane]	> 100	620	580	990	100	530	1830	510	200	1100	530	286	28	590	–	–	–
Nc1ccn([C@@H]2CS[C@H](CO)O2)c(=O)n1 [Lamivudine, lamivudine]	–	510	850	> 40000	150	> 40000	> 40000	> 40000	290	> 40000	350	> 500	–	–	>500/100	–	–
Cc1cn([C@H]2C[C@H](N=[N+]=[N-])[C@@H](CO)O2)c(=O)[nH]c1=O [Zidovudine, zidovudine]	–	10	270	9	6.1	20	27	22	17	31	23	9	< 1.1	1.7	–	> 10	74
